Measured values reported in a compilation of properties of binary mixtures (doi:10.1021/acs.jced.1c00111).

Assay: xn = mol fraction of the nth substance listed
Details: 100 kPa

CC[NH+](C)CC.CS(=O)(=O)[O-] + O
viscosity [mPa·s]
Details | 298.15 K | 303.15 K | 308.15 K | 313.15 K | 318.15 K | 323.15 K | 328.15 K | 333.15 K | 338.15 K
x1 = 0.0155 | 1.28 | 1.15 | – | 0.957 | 0.876 | 0.806 | 0.751 | 0.693 | 0.643
x1 = 0.0356 | 2.02 | 1.84 | 1.64 | 1.47 | 1.34 | 1.22 | 1.13 | 1.04 | 0.953
x1 = 0.0571 | 2.57 | 2.27 | 2 | – | 1.61 | 1.45 | 1.31 | 1.2 | –
x1 = 0.0757 | 3.43 | 2.99 | 2.64 | 2.34 | 2.09 | 1.87 | 1.68 | 1.53 | 1.39
x1 = 0.0967 | – | – | 3.45 | 3.05 | 2.7 | 2.42 | 2.17 | – | 1.79
x1 = 0.1234 | 5.96 | 5.09 | 4.39 | 3.82 | 3.35 | 2.97 | 2.64 | 2.36 | 2.12
x1 = 0.1582 | 8.21 | 6.94 | 5.93 | 5.13 | – | 3.92 | – | 3.08 | 2.75
x1 = 0.206 | 11.6 | 9.76 | 8.3 | 7.11 | 6.12 | 5.3 | – | 4.03 | 3.55
x1 = 0.3246 | 20 | – | 13.9 | – | 10.1 | 8.94 | 7.81 | – | –
x1 = 0.4263 | – | 25.9 | 22 | – | 15.6 | 13.2 | 11.5 | 9.9 | –
x1 = 0.5018 | 42.1 | 34 | – | 22.8 | 19.4 | 16.5 | – | – | –
x1 = 0.5783 | 52.8 | 42.1 | – | 28.3 | 23.6 | 20 | 17 | 14.5 | –
x1 = 0.6771 | – | – | 44.2 | 36 | 29.8 | 24.8 | 21.1 | 18.1 | –
x1 = 0.7782 | 90.5 | 70.3 | – | 44.9 | 36.5 | 30 | – | 22.2 | 18.7
